One block for each molecule: values may come before it. Activity calls are given as the source filed them. The rule behind the calls is not given here.
What was measured:
DNA topoisomerase 1 = target: T1, DNA topoisomerase 1 (Homo sapiens, UniProt P11387); experiment: Inhibition of human DNA topoisomerase 1-mediated relaxation of supercoiled DNA by gel electrophoresis
T1 sequence (P11387 whole entry): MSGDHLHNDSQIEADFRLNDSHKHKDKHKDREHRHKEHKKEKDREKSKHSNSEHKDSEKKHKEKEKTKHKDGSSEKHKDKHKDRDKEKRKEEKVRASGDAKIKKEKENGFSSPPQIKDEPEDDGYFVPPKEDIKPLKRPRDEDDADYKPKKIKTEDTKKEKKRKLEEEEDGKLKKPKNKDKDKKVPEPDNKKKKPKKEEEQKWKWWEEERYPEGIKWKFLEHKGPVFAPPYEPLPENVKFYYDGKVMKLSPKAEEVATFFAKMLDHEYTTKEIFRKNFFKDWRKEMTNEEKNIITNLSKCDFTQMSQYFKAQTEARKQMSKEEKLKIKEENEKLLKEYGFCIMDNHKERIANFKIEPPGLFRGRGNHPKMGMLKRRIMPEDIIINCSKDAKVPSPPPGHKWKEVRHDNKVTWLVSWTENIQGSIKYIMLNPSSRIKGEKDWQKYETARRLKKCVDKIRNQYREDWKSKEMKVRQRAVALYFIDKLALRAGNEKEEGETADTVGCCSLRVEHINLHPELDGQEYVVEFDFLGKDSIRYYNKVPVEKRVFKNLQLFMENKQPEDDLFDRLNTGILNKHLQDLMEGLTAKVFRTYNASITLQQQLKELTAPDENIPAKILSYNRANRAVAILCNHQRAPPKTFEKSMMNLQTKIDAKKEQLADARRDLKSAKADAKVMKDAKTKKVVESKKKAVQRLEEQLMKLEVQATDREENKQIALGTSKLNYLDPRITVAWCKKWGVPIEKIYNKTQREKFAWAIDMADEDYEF

[1] = target: DNA topoisomerase 2-alpha (Homo sapiens, UniProt P11388); experiment: Inhibition of human DNA topoisomerase 2-mediated relaxation of supercoiled DNA by gel electrophoresis
Sequence of DNA topoisomerase 2-alpha (P11388 whole entry): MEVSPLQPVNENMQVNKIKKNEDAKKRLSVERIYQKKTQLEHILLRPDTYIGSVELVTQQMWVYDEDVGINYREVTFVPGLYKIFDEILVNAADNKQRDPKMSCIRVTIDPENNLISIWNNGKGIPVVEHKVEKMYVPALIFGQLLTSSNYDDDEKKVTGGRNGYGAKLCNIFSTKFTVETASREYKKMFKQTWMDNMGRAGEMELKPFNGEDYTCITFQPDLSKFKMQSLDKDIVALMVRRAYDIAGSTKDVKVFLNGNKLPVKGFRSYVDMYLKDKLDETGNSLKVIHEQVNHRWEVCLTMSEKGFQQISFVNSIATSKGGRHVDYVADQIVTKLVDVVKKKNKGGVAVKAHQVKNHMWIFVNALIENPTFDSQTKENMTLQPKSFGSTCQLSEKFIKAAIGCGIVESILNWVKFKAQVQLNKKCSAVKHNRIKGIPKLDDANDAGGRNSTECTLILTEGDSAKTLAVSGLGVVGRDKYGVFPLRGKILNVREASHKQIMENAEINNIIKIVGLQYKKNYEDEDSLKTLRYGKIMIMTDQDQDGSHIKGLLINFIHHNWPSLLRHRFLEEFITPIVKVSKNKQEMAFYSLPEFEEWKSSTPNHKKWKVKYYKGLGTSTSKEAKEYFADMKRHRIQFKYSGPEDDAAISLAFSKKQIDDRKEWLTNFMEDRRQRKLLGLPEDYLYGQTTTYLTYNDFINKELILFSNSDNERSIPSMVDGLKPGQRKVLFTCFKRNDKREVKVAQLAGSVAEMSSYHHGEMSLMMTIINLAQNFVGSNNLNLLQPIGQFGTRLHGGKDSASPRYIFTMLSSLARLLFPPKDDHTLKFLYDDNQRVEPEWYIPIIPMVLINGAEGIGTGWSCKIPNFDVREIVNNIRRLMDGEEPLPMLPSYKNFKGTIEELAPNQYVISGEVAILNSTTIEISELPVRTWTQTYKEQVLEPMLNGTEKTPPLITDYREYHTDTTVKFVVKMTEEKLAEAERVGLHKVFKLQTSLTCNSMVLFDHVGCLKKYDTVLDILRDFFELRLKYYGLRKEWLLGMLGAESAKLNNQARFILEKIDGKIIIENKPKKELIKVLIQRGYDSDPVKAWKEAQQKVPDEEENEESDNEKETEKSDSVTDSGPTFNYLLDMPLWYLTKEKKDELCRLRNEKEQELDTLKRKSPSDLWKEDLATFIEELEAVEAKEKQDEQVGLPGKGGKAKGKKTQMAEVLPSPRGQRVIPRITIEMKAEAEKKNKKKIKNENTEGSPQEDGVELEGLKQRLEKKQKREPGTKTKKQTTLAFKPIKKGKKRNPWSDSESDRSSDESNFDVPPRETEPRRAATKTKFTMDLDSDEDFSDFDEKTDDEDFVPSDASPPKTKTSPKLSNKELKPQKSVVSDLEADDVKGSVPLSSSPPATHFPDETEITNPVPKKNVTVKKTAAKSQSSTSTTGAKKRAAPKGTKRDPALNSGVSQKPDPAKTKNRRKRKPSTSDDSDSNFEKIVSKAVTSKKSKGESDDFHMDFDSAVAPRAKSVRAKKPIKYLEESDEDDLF

A549 = experiment: Cytotoxicity against human A549 cells at 25 uM after 48 hrs by WST8 assay; type: functional, cell-based
PC-3 = experiment: Cytotoxicity against human PC3 cells at 25 uM after 48 hrs by WST8 assay; type: functional, cell-based
HL-60 = experiment: Cytotoxicity against human HL60 cells at 25 uM after 48 hrs by WST8 assay; type: functional, cell-based
PANC-1 = experiment: Cytotoxicity against human PANC1 cells at 25 uM after 48 hrs by WST8 assay; type: functional, cell-based

SMILES: CC(C)=CCC[C@](C)(O)[C@H]1CC[C@]2(C)[C@@H]1[C@H](O)C[C@@H]1[C@@]3(C)CC[C@H](O)C(C)(C)[C@@H]3[C@@H](O[C@@H]3O[C@H](CO)[C@@H](O)[C@H](O)[C@H]3O[C@H]3O[C@@H](C)[C@H](O)[C@@H](O)[C@H]3O)C[C@]12C
- IC50 (DNA topoisomerase 1): > 250 µM
- IC50 [1]: > 250 µM
- growth inhibition (GI) (A549): inactive
- growth inhibition (GI) (PC-3): inactive
- growth inhibition (GI) (HL-60): inactive
- growth inhibition (GI) (PANC-1): inactive

SMILES: CC(C)=CCC[C@@](C)(O)[C@H]1CC[C@]2(C)[C@@H]1[C@H](O)C[C@@H]1[C@@]3(C)CC[C@H](O)C(C)(C)[C@@H]3[C@@H](O[C@@H]3O[C@H](CO)[C@@H](O)[C@H](O)[C@H]3O[C@H]3O[C@@H](C)[C@H](O)[C@@H](O)[C@H]3O)C[C@]12C
- IC50 (DNA topoisomerase 1): > 250 µM
- IC50 [1]: > 250 µM
- growth inhibition (GI) (A549): inactive
- growth inhibition (GI) (PC-3): inactive
- growth inhibition (GI) (HL-60): inactive
- growth inhibition (GI) (PANC-1): inactive

SMILES: CC(C)=CCC[C@@](C)(O)[C@H]1CC[C@]2(C)[C@@H]1[C@H](O)C[C@@H]1[C@@]3(C)CC[C@H](O[C@@H]4O[C@H](CO)[C@@H](O)[C@H](O)[C@H]4O[C@@H]4O[C@H](CO)[C@@H](O)[C@H](O)[C@H]4O)C(C)(C)[C@@H]3CC[C@]12C
- IC50 (DNA topoisomerase 1): > 250 µM
- IC50 [1]: > 250 µM
- growth inhibition (GI) (A549): inactive
- growth inhibition (GI) (PC-3): inactive
- growth inhibition (GI) (HL-60): inactive
- growth inhibition (GI) (PANC-1): inactive

- IC50 (DNA topoisomerase 1): > 250 µM
- IC50 [1]: > 250 µM
SMILES: C[C@H]1[C@H](C)CC[C@]2(C(=O)O[C@@H]3O[C@H](CO)[C@@H](O)[C@H](O)[C@H]3O[C@@H]3OC[C@H](O)[C@H](O)[C@H]3O)CC[C@]3(C(=O)O)C(=CC[C@@H]4[C@@]5(C)CC[C@H](O[C@@H]6O[C@H](CO)[C@@H](O)[C@H](O)[C@H]6O)C(C)(C)[C@@H]5CC[C@]43C)[C@H]12
- growth inhibition (GI) (A549): inactive
- growth inhibition (GI) (PC-3): inactive
- growth inhibition (GI) (HL-60): inactive
- growth inhibition (GI) (PANC-1): inactive

SMILES: CC(C)=CC/C=C(/C)[C@H]1CC[C@]2(C)[C@@H]1[C@H](O)C[C@@H]1[C@@]3(C)CC[C@H](O)C(C)(C)[C@@H]3[C@@H](O)C[C@]12C
- IC50 (DNA topoisomerase 1): > 250 µM
- IC50 [1]: > 250 µM
- growth inhibition (GI) (A549): inactive
- growth inhibition (GI) (PC-3): inactive
- growth inhibition (GI) (HL-60): inactive
- growth inhibition (GI) (PANC-1): inactive

- IC50 (DNA topoisomerase 1): > 250 µM
- IC50 [1]: > 250 µM
SMILES: C[C@H]1[C@H](C)CC[C@]2(C(=O)O)CC[C@]3(C(=O)O)C(=CC[C@@H]4[C@@]5(C)C[C@@H](O)[C@H](O)C(C)(C)[C@@H]5CC[C@]43C)[C@H]12
- growth inhibition (GI) (A549): inactive
- growth inhibition (GI) (PC-3): inactive
- growth inhibition (GI) (HL-60): inactive
- growth inhibition (GI) (PANC-1): inactive

SMILES: C=C(C)[C@@H]1CC[C@]2(C)CC[C@]3(C)[C@@H](CC[C@@H]4[C@@]5(C)CC[C@H](OC(C)=O)C(C)(C)[C@@H]5CC[C@]43C)[C@H]12
- IC50 [1]: > 250 µM
- growth inhibition (GI) (A549): inactive
- growth inhibition (GI) (PC-3): inactive
- growth inhibition (GI) (HL-60): inactive
- growth inhibition (GI) (PANC-1): inactive

SMILES: CC(C)=CCC[C@](C)(O)[C@H]1CC[C@]2(C)[C@@H]1[C@H](O)C[C@@H]1[C@@]3(C)CC[C@H](O[C@@H]4O[C@H](CO)[C@@H](O)[C@H](O)[C@H]4O[C@@H]4O[C@H](CO)[C@@H](O)[C@H](O)[C@H]4O)C(C)(C)[C@@H]3CC[C@]12C
- IC50 (DNA topoisomerase 1): > 250 µM
- IC50 [1]: > 250 µM
- growth inhibition (GI) (A549): inactive
- growth inhibition (GI) (PC-3): inactive
- growth inhibition (GI) (HL-60): inactive
- growth inhibition (GI) (PANC-1): inactive

- IC50 [1]: > 250 µM
SMILES: C=C(C)[C@@H]1CC[C@]2(C)CC[C@]3(C)[C@H](CC[C@@H]4[C@@]5(C)CC[C@H](O)C(C)(C)[C@@H]5CC[C@]43C)[C@@H]12 [LUPEOL]
- growth inhibition (GI) (A549): inactive
- growth inhibition (GI) (PC-3): inactive
- growth inhibition (GI) (HL-60): inactive
- growth inhibition (GI) (PANC-1): inactive

Reference: ChEMBL document CHEMBL1157938, “Cytotoxicity and inhibition of DNA topoisomerase I of polyhydroxylated triterpenoids and triterpenoid glycosides” (Bioorg Med Chem Lett, 2010)
